C[C@H]1[C@H](C)CC[C@]2(C(=O)O)CC[C@]3(C)C(=CC[C@@H]4[C@@]5(C)CC[C@H](O)C(C)(C)[C@@H]5CC[C@]43C)[C@H]12
solubility (mole fraction)
Details	278.15 K	283.15 K	288.15 K	293.15 K	298.15 K	303.15 K	308.15 K	313.15 K	318.15 K	323.15 K
in acetone	0.000384	0.000473	0.00058	0.000707	0.000836	0.001	0.00119	0.00139	0.00162	0.00187
in methanol	0.000447	0.000505	0.000579	0.000662	0.000746	0.000842	0.000955	0.00107	0.00121	0.00135
in water	1.16e-07	1.34e-07	1.55e-07	1.76e-07	2.02e-07	2.28e-07	2.57e-07	2.88e-07	3.18e-07	3.54e-07
